Laboratory results: patent US20260034123A1 (Cedilla Therapeutics, Inc., priority 2022, published 2026)

Columns and labels:
CDK2/Cyclin E1 = CDK2/Cyclin E1 (Homo sapiens, UniProt P24941); test: ADP-Glo Luminescent Kinase Assay (CDK2/E1-37C); format: biochemical; details: 0.18 nM CDK2/Cyclin E1, 100 μM ATP, Histone H1, 37° C.; read-out: ADPGLO (CDK2/E1-37C): IC50
How it was run: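 Activated CDK2/Cyclin E1 (0.18 nM final) preincubated with compound 60 min at 37 °C, then reacted with 100 μM ATP and Histone H1 ([…]) for 90 min at 37 °C in HEPES pH 7.5 buffer. ADP-Glo luminescence normalized to % activity; IC50 from four-parameter fit.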

Kuramochi cells RB-KO = test: IncuCyte Kuramochi cell proliferation assay, RB-KO; format: cell-based; details: 72 hours, cell count, batch mean
How it was run: (§1)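 mApple-H2B-labelled Kuramochi cells were treated with a 10-point, half-log series (top 20 µM) and imaged at 0 and 72 h. Fluorescent nuclei were counted, and the 0–72 h fold change was normalized to DMSO wells. GI50 came from dose-response fits.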

Kuramochi cells RB-WT = test: IncuCyte Kuramochi cell proliferation assay, RB-WT; format: cell-based; details: 72 hours, cell count
How it was run: as §1

SMILES | IC50 (CDK2/Cyclin E1) [µM] | IC50 (Kuramochi cells RB-KO) [µM] | IC50 (Kuramochi cells RB-WT) [µM]
O=C(O)c1ccccc1Cn1cc(C(=O)N2C[C@@H](COCc3cccc(C4CCC(C(F)(F)F)CC4)c3F)C3(C2)CN(C(=O)C2(C(F)(F)F)CC2)C3)cn1 (stereo in doubt) [Compound I-115, 2-((4-(8-(((2-fluoro-3-(4-(trifluoromethyl)cyclohexyl)benzyl)oxy)methyl)-2-(1-(trifluoromethyl)cyclopropane-1-carbonyl)-2,6-diazaspiro[3.4]octane-6-carbonyl)-1H-pyrazol-1-yl)methyl)benzoic acid] | ≤ 0.5 | > 10 | > 10
CC1(C)C[C@@H]1C(=O)N1CC2(CN(C(=O)c3cnn(Cc4ccc(F)cc4)c3)CC2COc2cccc(CC3CCC(F)(F)CC3)c2C(=O)O)C1 (stereo partly drawn) [Compound I-129] | ≤ 0.5 | > 10 | > 10
O=C(O)c1ccccc1-c1c(COC[C@@H]2CN(C(=O)c3cnn(Cc4ccc(F)cc4)c3)CC23CN(C(=O)C2(C(F)(F)F)CC2)C3)cccc1C1CCC(C(F)(F)F)CC1 (stereo in doubt) [Compound I-104, 2′-(((6-(1-(4-fluorobenzyl)-1H-pyrazole-4-carbonyl)-2-(1-(trifluoromethyl)cyclopropanecarbonyl)-2,6-diazaspiro[3.4]octan-8-yl)methoxy)methyl)-6′-(4-(trifluoromethyl)cyclohexyl)-[1,1′-biphenyl]-2-carboxylic acid] | ≤ 0.5 | 5 to 10 | 0.5 to 5
Cc1cc(F)ccc1-c1cccc(COCC2CN(C(=O)c3cnn(Cc4ccc(F)cc4)c3)CC23CN(C(=O)C2(C(F)(F)F)CC2)C3)c1C(=O)O (stereo not drawn) [I′-77, 4′-fluoro-3-(((6-(1-(4-fluorobenzyl)-1H-pyrazole-4-carbonyl)-2-(1-(trifluoromethyl)cyclopropane-1-carbonyl)-2,6-diazaspiro[3.4]octan-8-yl)methoxy)methyl)-2′-methyl-[1,1′-biphenyl]-2-carboxylic acid] | ≤ 0.5 | > 10 | 5 to 10
Cc1cc(N2C[C@@H](COCc3cccc(C4CCC(F)(F)CC4)c3C(=O)O)C3(CN(C(=O)C4(C(F)(F)F)CC4)C3)C2)c2scnc2c1C [I′-41] | > 10 | > 10 | 5 to 10
CC1(C)C[C@@H]1C(=O)N1CC2(CN(C(=O)c3cnn(Cc4ccc(F)cc4)c3)CC2COCc2cccc(Br)c2C(=O)O)C1 (stereo partly drawn) [I′-81] | 0.5 to 5 | > 10 | > 10
O=C(O)c1ccccc1Cn1cc(C(=O)N2CC(COCc3cccc(C4CCC(C(F)(F)F)CC4)c3C(F)(F)F)C3(C2)CN(C(=O)C2(C(F)(F)F)CC2)C3)cn1 (stereo not drawn) [Compound I-114] | ≤ 0.5 | > 10 | > 10
CC1(C)C[C@@H]1C(=O)N1CC2(CN(C(=O)c3cnn(Cc4ccc(F)cc4)c3)CC2COCc2cccc(C3CCC(C(F)(F)F)CC3)c2C(=O)O)C1 (stereo partly drawn) [I′-85, 2-(((2-((S)-2,2-dimethylcyclopropane-1-carbonyl)-6-(1-(4-fluorobenzyl)-1H-pyrazole-4-carbonyl)-2,6-diazaspiro[3.4]octan-8-yl)methoxy)methyl)-6-(4-(trifluoromethyl)cyclohexyl)benzoic acid] | ≤ 0.5 | 5 to 10 | ≤ 0.5

Second part, led by results:

IC50 (CDK2/Cyclin E1) [µM] | SMILES | IC50 (Kuramochi cells RB-KO) [µM] | IC50 (Kuramochi cells RB-WT) [µM]
≤ 0.5 | O=C(c1cnn(Cc2ccc(F)cc2)c1)N1CC(COCc2cccc(C3CCC(F)(F)CC3)c2-c2noc(=O)[nH]2)C2(C1)CN(C(=O)C1(C(F)(F)F)CC1)C2 (stereo not drawn) [I′-55, 3-(2-(4,4-difluorocyclohexyl)-6-(((6-(1-(4-fluorobenzyl)-1H-pyrazole-4-carbonyl)-2-(1-(trifluoromethyl)cyclopropane-1-carbonyl)-2,6-diazaspiro[3.4]octan-8-yl)methoxy)methyl)phenyl)-1,2,4-oxadiazol-5(4H)-one] | > 10 | 5 to 10
≤ 0.5 | CC(C)(C(=O)N1CC2(CN(C(=O)c3cnn(Cc4cc(F)cc(F)c4)c3)C[C@H]2COCc2cccc(C3CCC(F)(F)CC3)c2C(=O)O)C1)C(F)(F)F [I′-45, (S)-2-(((6-(1-(3,5-difluorobenzyl)-1H-pyrazole-4-carbonyl)-2-(3,3,3-trifluoro-2,2-dimethylpropanoyl)-2,6-diazaspiro[3.4]octan-8-yl)methoxy)methyl)-6-(4,4-difluorocyclohexyl)benzoic acid] | > 10 | 0.5 to 5
≤ 0.5 | CC(C)(C(=O)N1CC2(CN(C(=O)c3cnn(Cc4cc(F)c(F)cc4F)c3)C[C@H]2COCc2cccc(C3CCC(F)(F)CC3)c2C(=O)O)C1)C(F)(F)F [I′-52, (S)-2-(4,4-difluorocyclohexyl)-6-(((2-(3,3,3-trifluoro-2,2-dimethylpropanoyl)-6-(1-(2,4,5-trifluorobenzyl)-1H-pyrazole-4-carbonyl)-2,6-diazaspiro[3.4]octan-8-yl)methoxy)methyl)benzoic acid] | > 10 | 0.5 to 5
≤ 0.5 | CC(C)(C(=O)N1CC2(CN(C(=O)c3cnn(Cc4ccc(F)cc4)c3)C[C@H]2COCc2cccc(C3CCC(F)(F)CC3)c2C(=O)OCCN2CCOCC2)C1)C(F)(F)F [I′-31] | 5 to 10 | 0.5 to 5
≤ 0.5 | CC(C)(C(=O)N1CC2(CN(C(=O)c3cnn(Cc4ccc(F)cc4)c3)C[C@H]2COCc2cccc(C3=CCC(F)(F)CC3)c2C(=O)O)C1)C(F)(F)F [I′-37] | > 10 | ≤ 0.5
≤ 0.5 | CC(C)(C(=O)N1CC2(CN(C(=O)c3cnn(Cc4ccc(F)c(F)c4)c3)C[C@H]2COCc2cccc(C3CCC(F)(F)CC3)c2C(=O)O)C1)C(F)(F)F [I′-58, (S)-2-(((6-(1-(3,4-difluorobenzyl)-1H-pyrazole-4-carbonyl)-2-(3,3,3-trifluoro-2,2-dimethylpropanoyl)-2,6-diazaspiro[3.4]octan-8-yl)methoxy)methyl)-6-(4,4-difluorocyclohexyl)benzoic acid] | > 10 | > 10
≤ 0.5 | CC(C)(C(=O)N1CC2(CN(C(=O)c3cnn(Cc4ccc(F)cc4)c3)C[C@H]2COCc2cccc(C3CCC(F)(F)CC3)c2C#N)C1)C(F)(F)F [I′-35] | > 10 | 0.5 to 5
≤ 0.5 | CC(C)(C(=O)N1CC2(CN(C(=O)c3cnn(Cc4ccc(F)cc4)c3)C[C@H]2COCc2cccc(C3CCC(C(F)(F)F)CC3)c2CC(=O)O)C1)C(F)(F)F (stereo partly drawn) [I′-23, (S)-2-(2-(((6-(1-(4-fluorobenzyl)-1H-pyrazole-4-carbonyl)-2-(3,3,3-trifluoro-2,2-dimethylpropanoyl)-2,6-diazaspiro[3.4]octan-8-yl)methoxy)methyl)-6-(4-(trifluoromethyl)cyclohexyl)phenyl)acetic acid] | > 10 | ≤ 0.5
≤ 0.5 | O=C(O)c1c(OCCC2CN(C(=O)c3cnn(Cc4ccc(F)cc4)c3)CC23CN(C(=O)C2(C(F)(F)F)CC2)C3)cccc1C1CCC(F)(F)CC1 (stereo not drawn) [I′-32, 2-(4,4-difluorocyclohexyl)-6-(2-(6-(1-(4-fluorobenzyl)-1H-pyrazole-4-carbonyl)-2-(1-(trifluoromethyl)cyclopropane-1-carbonyl)-2,6-diazaspiro[3.4]octan-8-yl)ethoxy)benzoic acid] | 5 to 10 | ≤ 0.5
> 10 | O=C(c1cnn(Cc2ccc(F)cc2)c1)N1CC(COCc2cccc(C3CCC(F)(F)CC3)c2C(=O)C(F)(F)F)C2(C1)CN(C(=O)C1(C(F)(F)F)CC1)C2 (stereo not drawn) [I′-56] | > 10 | 0.5 to 5
